Measurements as given in US20220168427A1 (Ranok Therapeutics (Hangzhou) Co. Ltd., priority 2019, published 2022).
Counter-ions that a name gives are not always drawn.

Key:
HSP90α = HSP90α (Homo sapiens, UniProt P07900); experiment: HSP90α Binding Fluorescent Polarization (FP) Assay; settings: competition with FITC-geldanamycin; read-out: HSP90 Binding Potency
Outline: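 Duplicate wells held BSA buffer, FITC-geldanamycin tracer, compound (3-fold dilution plate spanning 40 μM–2.0 nM) and recombinant protein diluted to 28 μg/ml before addition. Polarization read at 30, 60 and 120 min, 25 °C. Background-corrected mP values gave IC50 through a four-parameter inhibitor-response fit.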

MV4-11 cells = experiment: MV4-11 Cell Cytotoxicity Assay; type: cell-based, human; settings: CCK-8; for IC50 at 72 h: human, MV4-11 cells; for IC50: 72 hr
From the text: % Inhibition=100−(D−B)/(S−B)*100%.
S: The absorbance of the maximum (cells with DMSO)
B: The absorbance of the minimum (medium with DMSO)

BRD4 (BD1+BD2) = target: T1, BRD4 (BD1+BD2) (Homo sapiens, UniProt O60885); settings: read-out: BRD4 Binding Potency
T1 construct: 1.8 μg/ml recombinant BRD4 (BD1+BD2 domains) protein

| Compound | IC50 (HSP90α) | IC50 at 72 h (MV4-11 cells) | IC50 (BRD4 (BD1+BD2)) | IC50 (MV4-11 cells) |
| --- | --- | --- | --- | --- |
| Cc1sc2c(c1C)C(c1ccc(Cl)cc1)=N[C@@H](CCNCCOc1ccc(-n3c(O)nnc3-c3cc(C(C)C)c(O)cc3O)cc1)c1nnc(C)n1-2 [Compound 62, (S)-4-(4-(4-(2-((2-(4-(4-chlorophenyl)-2,3,9-trimethyl-6H-thieno[3,2-f][1,2,4]triazolo[4,3-a][1,4]diazepin-6-yl)ethyl)amino)ethoxy)phenyl)-5-hydroxy-4H-1,2,4-triazol-3-yl)-6-isopropylbenzene-1,3-diol, trifluoroacetic acid] | 0.1 to 1 µM | 0.1 to 1 µM | > 1 µM |  |
| Cc1sc2c(c1C)C(c1ccc(Cl)cc1)=N[C@@H](CC(=O)NCCOCCN1CCN(Cc3ccc(-n4c(O)nnc4-c4cc(C(C)C)c(O)cc4O)cc3)CC1)c1nnc(C)n1-2 [Compound 49, 2-((6S)-4-(4-chlorophenyl)-2,3,9-trimethyl-6H-thieno[3,2-f][1,2,4]triazolo[4,3-a][1,4]diazepin-6-yl)-N-(2-(2-(4-(4-(3-(2,4-dihydroxy-5-isopropylphenyl)-5-hydroxy-4H-1,2,4-triazol-4-yl)benzyl)piperazin-1-yl)ethoxy)ethyl)acetamide, trifluoroacetic acid, trifluoroacetic acid, trifluoroacetic acid, trifluoroacetic …] | < 0.1 µM | < 0.1 µM | 0.1 to 1 µM |  |
| CCNC(=O)c1noc(-c2cc(C(C)C)c(O)cc2O)c1-c1ccc(CN2CCN(CC3CCN(C(=O)C[C@@H]4N=C(c5ccc(Cl)cc5)c5c(sc(C)c5C)-n5c(C)nnc54)CC3)CC2)cc1 [Compound 126, (S)-4-(4-((4-((1-(2-(4-(4-chlorophenyl)-2,3,9-trimethyl-6H-thieno[3,2-f][1,2,4]triazolo[4,3-a][1,4]diazepin-6-yl)acetyl)piperidin-4-yl)methyl)piperazin-1-yl)methyl)phenyl)-5-(2,4-dihydroxy-5-isopropylphenyl)-N-ethylisoxazole-3-carboxamide hydrochloride] | 0.1 to 1 µM | < 0.1 µM | 0.1 to 1 µM |  |
| CCc1cc(-c2nnc(C(N)=O)n2-c2ccc(CN3CCN(CC4CCN(C(=O)C[C@@H]5N=C(c6ccc(Cl)cc6)c6c(sc(C)c6C)-n6c(C)nnc65)CC4)CC3)cc2)c(O)cc1O [Compound 106, (S)-4-(4-((4-((1-(2-(4-(4-chlorophenyl)-2,3,9-trimethyl-6H-thieno[3,2-f][1,2,4]triazolo[4,3-a][1,4]diazepin-6-yl)acetyl)piperidin-4-yl)methyl)piperazin-1-yl)methyl)phenyl)-5-(5-ethyl-2,4-dihydroxyphenyl)-4H-1,2,4-triazole-3-carboxamide, trifluoroacetic acid] | 0.1 to 1 µM | < 0.1 µM | 0.1 to 1 µM |  |
| Cc1sc2c(c1C)C(c1ccc(Cl)cc1)=N[C@@H](CC(=O)NCc1ccc(-n3c(S)nnc3-c3cc(C(C)C)c(O)cc3O)cc1)c1nnc(C)n1-2 [Compound 28, (S)-2-(4-(4-chlorophenyl)-2,3,9-trimethyl-6H-thieno[3,2-f][1,2,4]triazolo[4,3-a][1,4]diazepin-6-yl)-N-(4-(3-(2,4-dihydroxy-5-isopropylphenyl)-5-mercapto-4H-1,2,4-triazol-4-yl)benzyl)acetamide] | 0.1 to 1 µM | 0.1 to 1 µM | 0.1 to 1 µM |  |
| COc1cccc(-c2cc(C(=O)Nc3ccc(-c4ccc(OC5CCN(C)CC5)cc4OCCN(C)C(=O)C[C@@H]4N=C(c5ccc(Cl)cc5)c5c(sc(C)c5C)-n5c(C)nnc54)cc3)ccc2OC)c1 [Compound 136] | > 1 µM | 0.1 to 1 µM | 0.1 to 1 µM |  |
| Cc1sc2c(c1C)C(c1ccc(Cl)cc1)=N[C@@H](CC(=O)N1CCC(CN[C@@H](C)C(=O)N[C@H](C(=O)N3CCC[C@H]3C(=O)Nc3snnc3-c3ccccc3)C3CCCCC3)CC1)c1nnc(C)n1-2 [Compound 129, (S)-1-((S)-2-((S)-2-(((1-(2-((S)-4-(4-chlorophenyl)-2,3,9-trimethyl-6H-thieno[3,2-f][1,2,4]triazolo[4,3-a][1,4]diazepin-6-yl)acetyl)piperidin-4-yl)methyl)amino)propanamido)-2-cyclohexylacetyl)-N-(4-phenyl-1,2,3-thiadiazol-5-yl)pyrrolidine-2-carboxamide] | > 1 µM | > 1 µM | > 1 µM |  |
| CCNC(=O)c1nnc(-c2cc(C(C)C)c(O)cc2O)n1-c1ccc(CC2CCN(CC3CCN(C(=O)C[C@@H]4N=C(c5ccc(Cl)cc5)c5c(sc(C)c5C)-n5c(C)nnc54)CC3)CC2)cc1 [Compound 90, (S)-4-(4-((1-((1-(2-(4-(4-chlorophenyl)-2,3,9-trimethyl-6H-thieno[3,2-f][1,2,4]triazolo[4,3-a][1,4]diazepin-6-yl)acetyl)piperidin-4-yl)methyl)piperidin-4-yl)methyl)phenyl)-5-(2,4-dihydroxy-5-isopropylphenyl)-N-ethyl-4H-1,2,4-triazole-3-carboxamide] | 0.1 to 1 µM | < 0.1 µM | 0.1 to 1 µM |  |
| CCc1cc(-c2nnc(O)n2-c2ccc(CC3CCN(CC4CCN(C(=O)C[C@@H]5N=C(c6ccc(Cl)cc6)c6c(sc(C)c6C)-n6c(C)nnc65)CC4)CC3)cc2)c(O)cc1O [Compound 88, (S)-2-(4-(4-chlorophenyl)-2,3,9-trimethyl-6H-thieno[3,2-f][1,2,4]triazolo[4,3-a][1,4]diazepin-6-yl)-1-(4-((4-(4-(3-(5-ethyl-2,4-dihydroxyphenyl)-5-hydroxy-4H-1,2,4-triazol-4-yl)benzyl)piperidin-1-yl)methyl)piperidin-1-yl)ethan-1-one, formic acid] | 0.1 to 1 µM | < 0.1 µM | 0.1 to 1 µM |  |
| (S)—N-(4′-((1-((S)-(2-(4-(4-chlorophenyl)-2,3,9-trimethyl-6H-thieno[3,2-f][1,2,4]triazolo[4,3-a][1,4]diazepin-6-yl)acetyl)glycyl)piperidin-4-yl)oxy)-2′-hydroxy-[1,1′-biphenyl]-4-yl)-3′,6-dimethoxy-[1,1′-biphenyl]-3-carboxamide [Compound 133] | > 1 µM |  | > 1 µM | > 1 µM |
| Cc1sc2c(c1C)C(c1ccc(Cl)cc1)=N[C@@H](CC(=O)Nc1ccc(NC(=O)C3CCN(Cc4ccc(-n5c(O)nnc5-c5cc(C(C)C)c(O)cc5O)cc4)CC3)cc1)c1nnc(C)n1-2 [Compound 72, N-(4-(2-((6S)-4-(4-chlorophenyl)-2,3,9-trimethyl-6H-thieno[3,2-f][1,2,4]triazolo[4,3-a][1,4]diazepin-6-yl)acetamido)phenyl)-1-(4-(3-(2,4-dihydroxy-5-isopropylphenyl)-5-hydroxy-4H-1,2,4-triazol-4-yl)benzyl)piperidine-4-carboxamide, trifluoroacetic acid] | > 1 µM | < 0.1 µM | > 1 µM |  |
| CCc1cc(C(=O)N2Cc3ccc(CN4CCN(C(=O)C[C@@H]5N=C(c6ccc(Cl)cc6)c6c(sc(C)c6C)-n6c(C)nnc65)CC4)cc3C2)c(O)cc1O [Compound 142, (S)-2-(4-(4-chlorophenyl)-2,3,9-trimethyl-6H-thieno[3,2-f][1,2,4]triazolo[4,3-a][1,4]diazepin-6-yl)-1-(4-((2-(5-ethyl-2,4-dihydroxybenzoyl)isoindolin-5-yl)methyl)piperazin-1-yl)ethan-1-one] | 0.1 to 1 µM | 0.1 to 1 µM | 0.1 to 1 µM |  |
| CCc1cc(-c2nnc(O)n2-c2ccc(CN3CCN(CC4CCN(C(=O)C[C@@H]5N=C(c6ccc(Cl)cc6)c6c(sc(C)c6C)-n6c(C)nnc65)CC4)CC3)cc2)c(O)cc1O [Compound 10, (S)-2-(4-(4-chlorophenyl)-2,3,9-trimethyl-6H-thieno[3,2-f][1,2,4]triazolo[4,3-a][1,4]diazepin-6-yl)-1-(4-((4-(4-(3-(5-ethyl-2,4-dihydroxyphenyl)-5-hydroxy-4H-1,2,4-triazol-4-yl)benzyl)piperazin-1-yl)methyl)piperidin-1-yl)ethan-1-one hydrochloride] | 0.1 to 1 µM | < 0.1 µM | 0.1 to 1 µM |  |
| Cc1sc2c(c1C)C(c1ccc(Cl)cc1)=N[C@@H](CC(=O)N1CCN(Cc3ccc4c(c3)CN(C(=O)c3ccc(O)cc3O)C4)CC1)c1nnc(C)n1-2 [Compound 143, (S)-2-(4-(4-chlorophenyl)-2,3,9-trimethyl-6H-thieno[3,2-f][1,2,4]triazolo[4,3-a][1,4]diazepin-6-yl)-1-(4-((2-(2,4-dihydroxybenzoyl)isoindolin-5-yl)methyl)piperazin-1-yl)ethan-1-one] | 0.1 to 1 µM | > 1 µM | > 1 µM |  |
| COc1cccc(-c2cc(C(=O)Nc3ccc(-c4ccc(OC5CCN(C(=O)CNC(=O)C[C@@H]6N=C(c7ccc(Cl)cc7)c7c(sc(C)c7C)-n7c(C)nnc76)CC5)cc4O)cc3)ccc2OC)c1 [Compound 134] | > 1 µM | > 1 µM | > 1 µM |  |
| COc1cccc(-c2cc(C(=O)Nc3ccc(-c4ccc(OC5CCN(CC[C@@H]6N=C(c7ccc(Cl)cc7)c7c(sc(C)c7C)-n7c(C)nnc76)CC5)cc4OCCN(C)C)cc3)ccc2OC)c1 [Compound 140] | > 1 µM |  | > 1 µM | > 1 µM |
| CCc1cc(-c2nnc(C(=O)NCCN3CCCCC3)n2-c2ccc(CN3CCN(CC4CCN(C(=O)C[C@@H]5N=C(c6ccc(Cl)cc6)c6c(sc(C)c6C)-n6c(C)nnc65)CC4)CC3)cc2)c(O)cc1O [Compound 117, (S)-4-(4-((4-((1-(2-(4-(4-chlorophenyl)-2,3,9-trimethyl-6H-thieno[3,2-f][1,2,4]triazolo[4,3-a][1,4]diazepin-6-yl)acetyl)piperidin-4-yl)methyl)piperazin-1-yl)methyl)phenyl)-5-(5-ethyl-2,4-dihydroxyphenyl)-N-(2-(piperidin-1-yl)ethyl)-4H-1,2,4-triazole-3-carboxamide, trifluoroacetic acid] | 0.1 to 1 µM | < 0.1 µM | < 0.1 µM |  |
